Data taken from patent US8933039B2 (NPS Pharmaceuticals, Inc., priority 1995, dated 2015).
Non-standard residues stand in square brackets, D forms with d. Residues, ends and D or L forms follow the SMILES beside them. Met(O) = CS(=O)CC[C@H](N)C(=O)O

Tested on: CD1 mice
Assay: Intestinotrophic activity assessment: small bowel weight in mice
Format: in vivo
Conditions: for % Activity (small bowel inducing activity relative to native rat GLP-2(1-33) = 100%): mice, as Example 4; for % Increase in small bowel weight: CD1 mice, 2.5 μg peptide s.c. b.i.d. in PBS, sacrificed 10 or 14 days, relative to vehicle only
Procedure: Recipients were CD1 mice obtained from Charles River Laboratory (Ontario, Canada). The CD1 mice were aged-matched females at time of injection (n=3-4 per group), 6 weeks of age, unless otherwise specified. The animals were allowed a minimum of 24 hours to acclimatize to the laboratory facility before the initiation of each experiment. Animals were identified by ear punch. The mice were not restricted by diet or activity during the experiments. The light/dark cycle was 12 hours, between 6 pm to 6 am. Controls were age- and sex-matched (n=3-4) animals. Mice were injected subcutaneously, twice a day (b.i.d.), with 2.5 μg peptide in a total volume of 0.5 cc of PBS and were monitored daily in the laboratory facility. Animals were sacrificed 10 or 14 days after injection, and were fasted at least 20 hours before sacrifice.
The mice were anaesthetised with CO2 and exsanguinated by cardiac puncture. Blood was collected in 75 μl of TED (Trasysol; EDTA (5000 KIU/ml: 1.2 mg/ml; Diprotin-A), and the blood was centrifuged at 14 k×g for 5 minutes and the plasma was stored at −70 prior to analysis. The small bowel was removed from the peritoneal cavity, from pylorus to cecum, cleaned weighed and measured. For comparative purpose, sections from each animal were obtained from the identical anatomical position. Fragments each measuring 1.5-2.0 cm in length were obtained 8±2 cm, 18±2 cm, 32±2 cm from pylorus for histomorphometry representing proximal jejunum, distal jejunum and distal ileum. Each small bowel fragment was opened longitudinally on its antimesenteric border in a tissue block and then placed on 10% formalin (vol./vol.) overnight, then transferred to 70% […].
Percentage change in small bowel weight was calculated by dividing the mean change in bowel weight of analog treated mice, relative to mice treated with vehicle only, by the mean bowel weight of mice treated with vehicle only, and multiplying this figure by 100.
Experiments assessing the small bowel inducing activity of various analogs was repeated as described above for Example 4. In these experiments, the small bowel inducing activity of each analog in mice was calculated relative to that of native rat GLP-2(1-33) (expressed as 100% of activity). Resistance of analogs to DPP-IV cleavage was performed as described above in Example 3.

Molecule | % Activity (small bowel inducing activity relative to native rat GLP-2(1-33) = 100%) [%] | % Increase in small bowel weight [%] | % Increase in small bowel weight (listed as [Leu^10]rGLP-2) [%]
H-HADGSFSDEMNTILDNLATRDFINWLIQTK-OH [ratGLP-2(1-30)] | 23 |  | 
H-HGDGSFSDEMNTILDNLAARDFINWLIQTKATD-OH [[Gly2,Ala31]hGLP-2(1-33)] | 100 | 28 | 
H-HADGSFSDELNTILDNLATRDFINWLIQTKITD-OH [[Leu10]ratGLP-2(1-33)] | 51 |  | 26
H-HGDGSFSDEMNTILDNLAARDFINWAIQTKITD-OH [[Gly2,Ala26]hGLP-2(1-33)] | 28 |  | 
H-HGDGSFSDEMNTILDNLAARDFINALIQTKITD-OH [[Gly2,Ala25]hGLP-2(1-33)] | 18 |  | 
H-HGDGSFSDEANTILDNLAARDFINWLIQTKITD-OH [[Gly2,Ala10]hGLP-2(1-33)] | 82 | 33 | 
H-HADGSFSDEMNTILDNLAARDFVQWLIQTKITD-OH [[Val23,Gln24]hGLP-2(1-33)] | 82 | 36 | 
CC[C@H](C)[C@H](NC(=O)[C@H](Cc1ccccc1)NC(=O)[C@H](CC(=O)O)NC(=O)[C@H](CCCNC(=N)N)NC(=O)[C@H](C)NC(=O)[C@H](C)NC(=O)[C@H](CC(C)C)NC(=O)[C@H](CC(N)=O)NC(=O)[C@H](CC(=O)O)NC(=O)[C@H](CC(C)C)NC(=O)[C@@H](NC(=O)[C@@H](NC(=O)[C@H](CC(N)=O)NC(=O)[C@H](CCSC)NC(=O)[C@H](CCC(=O)O)NC(=O)[C@H](CC(=O)O)NC(=O)[C@H](CO)NC(=O)[C@H](Cc1ccccc1)NC(=O)[C@H](CO)NC(=O)CNC(=O)[C@H](CC(=O)O)NC(=O)[C@H](C)NC(=O)[C@@H](N)Cc1c[nH]cn1)[C@@H](C)O)[C@@H](C)CC)C(=O)N[C@@H](CC(N)=O)C(=O)N[C@@H](Cc1c[nH]c2ccccc12)C(=O)N[C@@H](CC(C)C)C(=O)N[C@H](C(=O)N[C@@H](CCC(N)=O)C(=O)N[C@H](C(=O)N[C@@H](CCCCN)C(=O)N[C@H](C(=O)N[C@H](C(=O)N[C@@H](CC(=O)O)C(=O)N[C@@H](Cc1ccc(O)cc1)C(=O)O)[C@@H](C)O)[C@@H](C)CC)[C@@H](C)O)[C@@H](C)CC [[Tyr34]hGLP-2(1-34)] | 135 |  | 
H-HGDGSFSDEMNAILDNLAARDFINWLIQTKITD-OH [[Gly2,Ala12]hGLP-2(1-33)] | 67 | 18 | 
H-HGDGSFSDAMNTILDNLAARDFINWLIQTKITD-OH [[Gly2,Ala9]hGLP-2(1-33)] | 112 | 31 | 
H-HADGSFSDEMNTILDSRRARDFINWLIQTKITD-OH [[Ser16, Arg17, Arg18]hGLP-2(1-33)] | 59 |  | 
H-HGDGSFSDEMNTILDNLAARDFINWLAQTKITD-OH [[Gly2,Ala27]hGLP-2(1-33)] | 82 | 22 | 
H-HADGSFSDEMNTILDNLATRDFINWLIQTKITD-NH2 [ratGLP-2(1-33)amide] | 56 | 23 | 
H-HGDGSFSDEMNTALDNLAARDFINWLIQTKITD-OH [[Gly2,Ala13]hGLP-2(1-33)] | 67 | 18 | 
CC[C@H](C)[C@H](NC(=O)[C@H](Cc1ccccc1)NC(=O)[C@H](CC(=O)O)NC(=O)[C@H](CCCNC(=N)N)NC(=O)[C@H](C)NC(=O)[C@H](C)NC(=O)[C@H](CC(C)C)NC(=O)[C@H](CC(N)=O)NC(=O)[C@H](CC(=O)O)NC(=O)[C@H](CC(C)C)NC(=O)[C@@H](NC(=O)[C@@H](NC(=O)[C@H](CC(N)=O)NC(=O)[C@H](CCSC)NC(=O)[C@H](CCC(=O)O)NC(=O)[C@H](CC(=O)O)NC(=O)[C@H](CO)NC(=O)[C@H](Cc1ccccc1)NC(=O)[C@H](CO)NC(=O)CNC(=O)[C@H](CC(=O)O)NC(=O)[C@H](C)NC(=O)[C@@H](N)Cc1c[nH]cn1)[C@@H](C)O)[C@@H](C)CC)C(=O)N[C@@H](CC(N)=O)C(=O)N[C@@H](Cc1c[nH]c2ccccc12)C(=O)N[C@@H](CC(C)C)C(=O)N[C@H](C(=O)N[C@@H](CCC(N)=O)C(=O)N[C@H](C(=O)N[C@@H](CCCCN)C(=O)N[C@H](C(=O)N[C@H](C(=O)N[C@@H](CC(=O)O)C(=O)NCCCCNC(=N)N)[C@@H](C)O)[C@@H](C)CC)[C@@H](C)O)[C@@H](C)CC [[Agm34]hGLP-2(1-34)] | 97 |  | 
H-HADGSFSDEMNTILDNLAAQDFINWLIQTKITD-OH [[Gln20]hGLP-2(1-33)] | 80 |  | 

Molecule | % Activity (small bowel inducing activity relative to native rat GLP-2(1-33) = 100%) [%] | % Increase in small bowel weight [%] | % Increase in small bowel weight (listed as [Leu^10]rGLP-2) [%]
H-HGDGSFSDEMNTILDALAARDFINWLIQTKITD-OH [[Gly2,Ala16]hGLP-2(1-33)] | 130 | 36 | 
H-GSFSDEMNTILDNLATRDFINWLIQTKITD-OH [ratGLP-2(4-33)] | 6 |  | 
H-HGDGSFSDEMNTILDNAAARDFINWLIQTKITD-OH [[Gly2,Ala17]hGLP-2(1-33)] | 130 | 36 | 
H-HGDGSFSDEMNTILDNLAARDFANWLIQTKITD-OH [[Gly2,Ala23]hGLP-2(1-33)] | 24 |  | 
H-HGDGSASDEMNTILDNLAARDFINWLIQTKITD-OH [[Gly2,Ala6]hGLP-2(1-33)] | 67 | 18 | 
H-HADGSFSDYSKYLDNLAARDFINWLIQTKITD-OH [[Tyr9, Ser10, Lys11, Tyr12, des-Ile13]hGLP-2(1-33)] | 94 | 41 | 
H-HADGTFSDEMNTILDNLAARDFINWLIQTKITD-OH [[Thr5]hGLP-2(1-33)] | 73 |  | 
H-HGDGSFSDEMNTILDNLAARAFINWLIQTKITD-OH [[Gly2,Ala21]hGLP-2(1-33)] | 125 | 35 | 
H-HGDGSFSDEMATILDNLAARDFINWLIQTKITD-OH [[Gly2,Ala11]hGLP-2(1-33)] | 150 | 42 | 
H-HGDGSFADEMNTILDNLAARDFINWLIQTKITD-OH [[Gly2,Ala7]hGLP-2(1-33)] | 82 | 22 | 
H-HGDGSFSDEMNTILDNLAARDFINWLIATKITD-OH [[Gly2,Ala28]hGLP-2(1-33)] | 130 | 31 | 
[Met SO2^10]rGLP-2 |  | 8 | 
H-HADGSFSDEMNTILDNLAARDFINWLIQTKITN-OH [[Asn33]hGLP-2(1-33)] | 91 |  | 
CC[C@H](C)[C@H](NC(=O)[C@H](Cc1ccccc1)NC(=O)[C@H](CC(=O)O)NC(=O)[C@H](CCCNC(=N)N)NC(=O)[C@@H](NC(=O)[C@H](C)NC(=O)[C@H](CC(C)C)NC(=O)[C@H](CC(N)=O)NC(=O)[C@H](CC(=O)O)NC(=O)[C@H](CC(C)C)NC(=O)[C@@H](NC(=O)[C@@H](NC(=O)[C@H](CC(N)=O)NC(=O)[C@H](CC[S+](C)[O-])NC(=O)[C@H](CCC(=O)O)NC(=O)[C@H](CC(=O)O)NC(=O)[C@H](CO)NC(=O)[C@H](Cc1ccccc1)NC(=O)[C@H](CO)NC(=O)CNC(=O)[C@H](CC(=O)O)NC(=O)[C@H](C)NC(=O)[C@@H](N)Cc1c[nH]cn1)[C@@H](C)O)[C@@H](C)CC)[C@@H](C)O)C(=O)N[C@@H](CC(N)=O)C(=O)N[C@@H](Cc1c[nH]c2ccccc12)C(=O)N[C@@H](CC(C)C)C(=O)N[C@H](C(=O)N[C@@H](CCC(N)=O)C(=O)N[C@H](C(=O)N[C@@H](CCCCN)C(=O)N[C@H](C(=O)N[C@H](C(=O)N[C@@H](CC(=O)O)C(=O)O)[C@@H](C)O)[C@@H](C)CC)[C@@H](C)O)[C@@H](C)CC (stereo partly shown) [[Met(O)10]ratGLP-2(1-33)] (H-HADGSFSDE[Met(O)]NTILDNLATRDFINWLIQTKITD-OH) | 18 |  | 
H-HGDGSFSDEMNTILDNLAARDFINWLIQTAITD-OH [[Gly2,Ala30]hGLP-2(1-33)] | 24 |  | 
H-HADGSFSDEMNTILDNLATRDFINW-OH [ratGLP-2(1-25)] | 8 |  | 
